Patent publication US20170360791A1, “PHARMACEUTICAL COMPOSITIONS FOR INCREASING THE BIOAVAILABILITY OF POORLY SOLUBLE DRUGS” (ASTEX PHARMACEUTICALS, INC., priority 2014, published 2017)
In brackets after ≈: the same amount, converted by molar mass. Where two headings read alike, the source gives them in different places.

Legend:
[1] = format: physicochemical; settings: room temperature, >24 hours
Procedure: The suspensions were filtered through 0.2 or 0.45 microm filters prior to HPLC analysis. Some filtrates were diluted with MeOH prior to the HPLC analysis.

[2] = MP470FB content in the supernatant of Soluplus/SIF mixtures at various time-points; format: physicochemical; set-up: MP470FB content in the supernatant: unit not given here; settings: 37° C.

- solubility ([1]; TPGS, aqueous with cosolvent or surfactant or cyclodextrin, thermodynamic from solid, solvent TPGS, read-out: Solubility): 10000 µg/mL (≈ 22.3 mM)
- solubility ([1]; Tween 80, aqueous with cosolvent or surfactant or cyclodextrin, thermodynamic from solid, solvent Tween 80, read-out: Solubility): 6600 µg/mL (≈ 14.7 mM)
- solubility ([1]; acetic acid, organic solvent or mixture, thermodynamic from solid, solvent Acetic acid, read-out: Solubility): 2900 µg/mL (≈ 6.48 mM)
- solubility ([1]; anisole, organic solvent or mixture, thermodynamic from solid, solvent Anisole, read-out: Solubility): 1800 µg/mL (≈ 4.02 mM)
- solubility ([1]; ethanol, organic solvent or mixture, thermodynamic from solid, solvent Ethanol, read-out: Solubility): 300 µg/mL (≈ 0.67 mM)
- solubility ([1]; ethyl cinnamate, organic solvent or mixture, thermodynamic from solid, solvent Ethyl cinnamate, read-out: Solubility): 3900 µg/mL (≈ 8.71 mM)
- solubility ([1]; linoleic acid, oil or lipid, thermodynamic from solid, solvent Linoleic acid, read-out: Solubility): 20 µg/mL (≈ 0.0447 mM)
- solubility ([1]; oleic acid, oil or lipid, thermodynamic from solid, solvent Oleic acid, read-out: Solubility): 100 µg/mL (≈ 0.223 mM)
- solubility ([1]; propylene carbonate, organic solvent or mixture, thermodynamic from solid, solvent Propylene carbonate, read-out: Solubility): 2900 µg/mL (≈ 6.48 mM)
- solubility ([1]; solvent Acetone): 2600 µg/mL (≈ 5.81 mM)
- solubility ([1]; solvent Benzyl alcohol): 63000 µg/mL (≈ 141 mM)
- solubility ([1]; solvent DMA): >240000 µg/mL
- solubility ([1]; solvent DMA, listed as MP470 free base): > 240000 µg/mL
- solubility ([1]; solvent DMSO): ~130000 µg/mL (≈ 290 mM)
- solubility ([1]; solvent Glycerin): 400 µg/mL (≈ 0.894 mM)
- solubility ([1]; solvent Labrasol): 11000 µg/mL (≈ 24.6 mM)
- solubility ([1]; solvent Methanol): 500 µg/mL (≈ 1.12 mM)
- solubility ([1]; solvent NMP): 300000 to 360000 µg/mL
- solubility ([1]; solvent NMP, listed as MP470 free base): ~300000 µg/mL (≈ 670 mM)
- solubility ([1]; solvent PEG400): 14000 µg/mL (≈ 31.3 mM)
- solubility ([1]; solvent Phosal 50 PG): 500 µg/mL (≈ 1.12 mM)
- solubility ([1]; solvent Propylene glycol): 400 µg/mL (≈ 0.894 mM)
- solubility ([1]; solvent Tween 20): 8000 µg/mL (≈ 17.9 mM)
- solubility ([1]; triacetin, organic solvent or mixture, thermodynamic from solid, solvent Triacetin, read-out: Solubility): 1000 µg/mL (≈ 2.23 mM)
- MP470FB content in the supernatant ([2]; 0.2% Soluplus/SIF, MP470FB 0.2 mg/mL, 30 min): 0.082
- MP470FB content in the supernatant ([2]; 0.2% Soluplus/SIF, MP470FB 0.2 mg/mL, 2 hr): 0.084
- MP470FB content in the supernatant ([2]; 0.2% Soluplus/SIF, MP470FB 0.2 mg/mL, 4 hr): 0.089
- MP470FB content in the supernatant ([2]; 0.2% Soluplus/SIF, MP470FB 0.2 mg/mL, 6 hr): 0.087
- MP470FB content in the supernatant ([2]; 0.2% Soluplus/SIF, MP470FB 0.2 mg/mL, 24 hr): 0.107
- MP470FB content in the supernatant ([2]; 0.2% Soluplus/SIF, MP470FB 0.6 mg/mL, 30 min): 0.126
- MP470FB content in the supernatant ([2]; 0.2% Soluplus/SIF, MP470FB 0.6 mg/mL, 2 hr): 0.136
- MP470FB content in the supernatant ([2]; 0.2% Soluplus/SIF, MP470FB 0.6 mg/mL, 4 hr): 0.152
- MP470FB content in the supernatant ([2]; 0.2% Soluplus/SIF, MP470FB 0.6 mg/mL, 6 hr): 0.154
- MP470FB content in the supernatant ([2]; 0.2% Soluplus/SIF, MP470FB 0.6 mg/mL, 24 hr): 0.178
- MP470FB content in the supernatant ([2]; 0.5% Soluplus/SIF, MP470FB 0.2 mg/mL, 30 min): 0.092
- MP470FB content in the supernatant ([2]; 0.5% Soluplus/SIF, MP470FB 0.2 mg/mL, 2 hr): 0.097
- MP470FB content in the supernatant ([2]; 0.5% Soluplus/SIF, MP470FB 0.2 mg/mL, 4 hr): 0.103
- MP470FB content in the supernatant ([2]; 0.5% Soluplus/SIF, MP470FB 0.2 mg/mL, 6 hr): 0.107
- MP470FB content in the supernatant ([2]; 0.5% Soluplus/SIF, MP470FB 0.2 mg/mL, 24 hr): 0.127
- MP470FB content in the supernatant ([2]; 0.5% Soluplus/SIF, MP470FB 0.6 mg/mL, 30 min): 0.155
- MP470FB content in the supernatant ([2]; 0.5% Soluplus/SIF, MP470FB 0.6 mg/mL, 2 hr): 0.190
- MP470FB content in the supernatant ([2]; 0.5% Soluplus/SIF, MP470FB 0.6 mg/mL, 4 hr): 0.228
- MP470FB content in the supernatant ([2]; 0.5% Soluplus/SIF, MP470FB 0.6 mg/mL, 6 hr): 0.235
- MP470FB content in the supernatant ([2]; 0.5% Soluplus/SIF, MP470FB 0.6 mg/mL, 24 hr): 0.315
- MP470FB content in the supernatant ([2]; 1.0% Soluplus/SIF, MP470FB 0.2 mg/mL, 30 min): 0.096
- MP470FB content in the supernatant ([2]; 1.0% Soluplus/SIF, MP470FB 0.2 mg/mL, 2 hr): 0.104
- MP470FB content in the supernatant ([2]; 1.0% Soluplus/SIF, MP470FB 0.2 mg/mL, 4 hr): 0.115
- MP470FB content in the supernatant ([2]; 1.0% Soluplus/SIF, MP470FB 0.2 mg/mL, 6 hr): 0.118
- MP470FB content in the supernatant ([2]; 1.0% Soluplus/SIF, MP470FB 0.2 mg/mL, 24 hr): 0.135
- MP470FB content in the supernatant ([2]; 1.0% Soluplus/SIF, MP470FB 0.6 mg/mL, 30 min): 0.179
- MP470FB content in the supernatant ([2]; 1.0% Soluplus/SIF, MP470FB 0.6 mg/mL, 2 hr): 0.223
- MP470FB content in the supernatant ([2]; 1.0% Soluplus/SIF, MP470FB 0.6 mg/mL, 4 hr): 0.277
- MP470FB content in the supernatant ([2]; 1.0% Soluplus/SIF, MP470FB 0.6 mg/mL, 6 hr): 0.318
- MP470FB content in the supernatant ([2]; 1.0% Soluplus/SIF, MP470FB 0.6 mg/mL, 24 hr): 0.428
- MP470FB content in the supernatant ([2]; 2.0% Soluplus/SIF, MP470FB 0.2 mg/mL, 30 min): 0.101
- MP470FB content in the supernatant ([2]; 2.0% Soluplus/SIF, MP470FB 0.2 mg/mL, 2 hr): 0.110
- MP470FB content in the supernatant ([2]; 2.0% Soluplus/SIF, MP470FB 0.2 mg/mL, 4 hr): 0.126
- MP470FB content in the supernatant ([2]; 2.0% Soluplus/SIF, MP470FB 0.2 mg/mL, 6 hr): 0.138
- MP470FB content in the supernatant ([2]; 2.0% Soluplus/SIF, MP470FB 0.2 mg/mL, 24 hr): 0.170
- MP470FB content in the supernatant ([2]; 2.0% Soluplus/SIF, MP470FB 0.6 mg/mL, 30 min): 0.206
- MP470FB content in the supernatant ([2]; 2.0% Soluplus/SIF, MP470FB 0.6 mg/mL, 2 hr): 0.290
- MP470FB content in the supernatant ([2]; 2.0% Soluplus/SIF, MP470FB 0.6 mg/mL, 4 hr): 0.368
- MP470FB content in the supernatant ([2]; 2.0% Soluplus/SIF, MP470FB 0.6 mg/mL, 6 hr): 0.409
- MP470FB content in the supernatant ([2]; 2.0% Soluplus/SIF, MP470FB 0.6 mg/mL, 24 hr): 0.469
- MP470FB content in the supernatant ([2]; 5.0% Soluplus/SIF, MP470FB 0.2 mg/mL, 30 min): 0.114
- MP470FB content in the supernatant ([2]; 5.0% Soluplus/SIF, MP470FB 0.2 mg/mL, 2 hr): 0.124
- MP470FB content in the supernatant ([2]; 5.0% Soluplus/SIF, MP470FB 0.2 mg/mL, 4 hr): 0.129
- MP470FB content in the supernatant ([2]; 5.0% Soluplus/SIF, MP470FB 0.2 mg/mL, 6 hr): 0.137
- MP470FB content in the supernatant ([2]; 5.0% Soluplus/SIF, MP470FB 0.2 mg/mL, 24 hr): 0.144
- MP470FB content in the supernatant ([2]; 5.0% Soluplus/SIF, MP470FB 0.6 mg/mL, 30 min): 0.244
- MP470FB content in the supernatant ([2]; 5.0% Soluplus/SIF, MP470FB 0.6 mg/mL, 2 hr): 0.342
- MP470FB content in the supernatant ([2]; 5.0% Soluplus/SIF, MP470FB 0.6 mg/mL, 4 hr): 0.374
- MP470FB content in the supernatant ([2]; 5.0% Soluplus/SIF, MP470FB 0.6 mg/mL, 6 hr): 0.411
- MP470FB content in the supernatant ([2]; 5.0% Soluplus/SIF, MP470FB 0.6 mg/mL, 24 hr): 0.467
- MP470FB content in the supernatant ([2]; Control (SIF), MP470FB 0.2 mg/mL, 30 min): 0.002
- MP470FB content in the supernatant ([2]; Control (SIF), MP470FB 0.2 mg/mL, 2 hr): 0
- MP470FB content in the supernatant ([2]; Control (SIF), MP470FB 0.2 mg/mL, 4 hr): 0
- MP470FB content in the supernatant ([2]; Control (SIF), MP470FB 0.2 mg/mL, 6 hr): 0
- MP470FB content in the supernatant ([2]; Control (SIF), MP470FB 0.2 mg/mL, 24 hr): 0
- MP470FB content in the supernatant ([2]; Control (SIF), MP470FB 0.6 mg/mL, 30 min): 0.002
- MP470FB content in the supernatant ([2]; Control (SIF), MP470FB 0.6 mg/mL, 2 hr): 0
- MP470FB content in the supernatant ([2]; Control (SIF), MP470FB 0.6 mg/mL, 4 hr): 0
- MP470FB content in the supernatant ([2]; Control (SIF), MP470FB 0.6 mg/mL, 6 hr): 0
- MP470FB content in the supernatant ([2]; Control (SIF), MP470FB 0.6 mg/mL, 24 hr): 0
- time MP470 is kept stable in solution by interaction with Soluplus ([2]; Soluplus/SIF): at least 24 hours
SMILES: S=C(NCc1ccc2c(c1)OCO2)N1CCN(c2ncnc3c2oc2ccccc23)CC1 [MP470 FB, amuvatinib]
